The source of these data is US4252804A, “Therapeutically useful 3,4,5-trimethoxybenzene derivatives” (Metabio-Joullie, priority 1977, dated 1981).

Holding throughout (type): in vivo
A short description of data set [1]: Acute toxicity for oral administration in mice. The following applies: mouse, in vivo, suspension in 10% gum arabic. Here is the method:
(§1) 1--ACUTE TOXICITY FOR ORAL ADMINISTRATION IN MICE
(§2) The compounds are administered orally in increasing doses in suspension in a 10% gum arabic solution to groups of 5 .female. mice of mean weight 25 g. The 50% lethal doses (LD 50) are calculated by the method of KARBER and BEHRENS (Arch. Exp. Path. Pharmakol. 1935, 177, 379-388).
(§3) The LD 50's found are summarised in Table IV below and indicate that the tested compounds have low toxicity.

Data set [2] relates to spontaneous motor activity. In words: Action on spontaneous motor activity in the mouse (BOISSIER). The settings on record: po, 0.5 h, 30 minutes after administration, vs control, read-out: Percentage variation in motor activity; for change in vivo at 500 mg/kg: 500 mg/kg p.o.; for change in vivo at 400 mg/kg: 400 mg/kg p.o. Here is the method:
2.1--Action on spontaneous motor activity in the mouse
30 minutes after administration per os of the test compounds, the mice (groups of 12 animals) are installed in individual cages in a BOISSIER activity measuring cupboard and move about before two photoelectric cells placed according to the rectangular coordinates. Meters register the movement during 20 minutes.

Data set [3] has as its system pentobarbital hypnosis time. In words: Action on the pentobarbital hypnosis time in the mouse. The following applies: po, 0.5 h, 30 minutes before pentobarbital 50 mg/kg i.v., vs control, read-out: Percentage variation in pentobarbital hypnosis time; for change in vivo at 400 mg/kg: 400 mg/kg p.o. An excerpt:
2.2--Action on the pentobarbital hypnosis time in the mouse
The hypnosis time of each mouse is counted in minutes from the moment when the animal may be placed without resistance on its back until that when it spontaneously gets back on its feet.

Data set [4] concerns convulsant effects of strychnine. In words: Action against the convulsant effects of strychnine in the mouse. The settings on record: 30 minutes before strychnine 1.5 mg/kg s.c. Here is the method:
(§4) 2.3--Test on the action against the convulsant effects of electric shock and of strychnine in the mouse
(§5) 30 minutes after administration of the compounds to groups of 10 animals, there is investigated the protection induced against:
convulsive crisis and death provoked by injection of strychnine at a limiting lethal dose of 1.5 mg/kg s.c.
(§6) The results are expressed as a percentage of protection based on a control group which have only received the administration vehicle for the compounds.

Data set [5] has as its system convulsant effects of electric shock. In words: Action against the convulsant effects of electric shock in the mouse. The settings on record: po, 0.5 h, 30 minutes before shock, 13 to 16 mA for 0.1 sec, read-out: Percentage protection against the convulsant effects of the electric shock; for responders at 500 mg/kg: 500 mg/kg p.o. Here is the method:
as §4, §5
tonic crisis (extension of rear feet) provoked by supramaximal transcranial electric stimulation (13 to 16 mA for 0.1 sec).
as §6

For data set [6], the system named is mice. In words: Acute toxicity for oral administration in mice. The settings on record: suspension in 10% gum arabic. Here is the method: as §1, §2, §3

In general, LD50 refers to the dose at which mortality reaches 50%. The low end stands for greater toxicity, the high end for lower toxicity.

In turn, `COc1cc(NC(=O)N(C)C)cc(OC)c1OC` [compound 775] came in with a 50% lethal dose (LD50) in data set [1] (po) of 1700 mg/kg. The change in vivo at 170 mg/kg is -40% in data set [2] (170 mg/kg p.o.) and 149% in data set [3] (170 mg/kg p.o.). Further, the “Percentage protection against the convulsant effects of strychnine” value (“Percentage protection” below) in data set [4] (170 mg/kg p.o.) is 33%.
For the compound `COc1cc(NC(=O)N2CC=CCC2)cc(OC)c1OC` [compound 819], the LD50 in data set [1] (po) came out at 5000 mg/kg. The responders at 500 mg/kg in data set [5] stood at 40%. In addition, in data set [2], the change in vivo at 500 mg/kg is -18%. In data set [4] (500 mg/kg p.o.), the “Percentage protection” value was found to be 70%.
Turning to `COc1cc(NC(=O)N2CCOCC2)cc(OC)c1OC` [compound 733], in data set [1] (po), the 50% lethal dose (LD50) was 4000 mg/kg. Moreover, the responders at 400 mg/kg in data set [5] (400 mg/kg p.o.) is 30%. For the same compound, the change in vivo at 400 mg/kg is -74% in data set [2] and 164% in data set [3]. Besides, the “Percentage protection” value in data set [4] (400 mg/kg p.o.) was found to be 100%.
`COc1cc(NC(=O)CN2CCOCC2)cc(OC)c1OC` [compound 833]: the “LD50” value in data set [6] is 3000 mg/kg.
The compound `COc1cc(NC(=O)N2CCCCC2)cc(OC)c1OC` [compound 776] yielded an LD50 in data set [1] (po) of 3750 mg/kg. Besides, the figures for the change in vivo at 375 mg/kg in data set [2] (375 mg/kg p.o.) and in data set [3] (375 mg/kg p.o.) were -48% and 130%, respectively. Also, the “Percentage protection” value in data set [4] (375 mg/kg p.o.) worked out at 44%.
In data set [1] (po), `COc1cc(NC(=O)N(C)C2CCCC2)cc(OC)c1OC` [compound 801] came in with a 50% lethal dose (LD50) of 2500 mg/kg. Moreover, in data set [5] (250 mg/kg p.o.), the responders at 250 mg/kg was 37%. Also, the change in vivo at 250 mg/kg in data set [2] (250 mg/kg p.o.) was -29%; in data set [3] (250 mg/kg p.o.), 70%. For the same compound, in data set [4] (250 mg/kg p.o.), the “Percentage protection” value was 100%.
In the case of `COc1cc(NC(=O)N2CCN(C)CC2)cc(OC)c1OC` [compound 759], in data set [1] (po), the LD50 was found to be 4000 mg/kg. For the same compound, the change in vivo at 400 mg/kg in data set [2] is -45%; in data set [3], 22%. Further, in data set [4] (400 mg/kg p.o.), the “Percentage protection” value came out at 55%.
In data set [1], `COc1cc(OC(=O)N2CCOCC2)cc(OC)c1OC` [compound 754] had a median lethal dose (LD50) of 5000 mg/kg. Also, in data set [5], the responders at 500 mg/kg came to 90%. The change in vivo at 500 mg/kg in data set [2] is -41%; in data set [3] (500 mg/kg p.o.), 178%. The “Percentage protection” value in data set [4] (500 mg/kg p.o.) is reported as 100%.
